Test results taken from the NIST ThermoML archive (doi:10.1016/j.fluid.2018.09.026).
“And” between values parts separate entries of the source, which are not always exact repeats. Equal values may be shown once. Numbers after ± are expanded uncertainties.

Conditions: Liquid; for mass density: 333.15 K, Vibrating tube method; for viscosity: Vibrating wire viscometry

OCCOCCOCCO [triethylene glycol]
Conditions	mass density [kg/m3]
2100 kPa	1092.7 ± 4.4
3070 kPa	1093.2 ± 4.4
5060 kPa	1094.2 ± 4.4
6980 kPa	1095.2 ± 4.4
9970 kPa	1096.6 ± 4.4
14840 kPa	1099 ± 4.4
19660 kPa	1101.3 ± 4.4
24670 kPa	1103.7 ± 4.4
29610 kPa	1106 ± 4.4
34530 kPa	1108.2 ± 4.5
39400 kPa	1110.3 ± 4.5
44280 kPa	1112.5 ± 4.5
49110 kPa	1114.5 ± 4.5
54040 kPa	1116.5 ± 4.5
59060 kPa	1118.6 ± 4.5
63830 kPa	1120.5 ± 4.5
68770 kPa	1122.4 ± 4.5

Conditions	viscosity
333.21 K, 150 kPa	9.306 ± 0.45 mPa·s [middle of 4 runs]
333.21 K, 170 kPa	9.339 ± 0.47 mPa·s [middle of 7 runs]
333.21 K, 750 kPa	9.338 ± 0.39 mPa·s
333.21 K, 760 kPa	9.422 ± 0.4 mPa·s and 9.347 ± 0.39 mPa·s
333.21 K, 790 kPa	9.383 ± 0.4 mPa·s
333.21 K, 1460 kPa	9.386 ± 0.38 mPa·s [middle of 4 runs]
333.21 K, 1470 kPa	9.379 ± 0.38 mPa·s and 9.375 ± 0.38 mPa·s and 9.363 ± 0.38 mPa·s
333.21 K, 4930 kPa	9.61 ± 0.39 mPa·s
333.21 K, 4940 kPa	9.609 ± 0.39 mPa·s and 9.653 ± 0.39 mPa·s
333.21 K, 4950 kPa	9.655 ± 0.39 mPa·s [middle of 4 runs]
333.21 K, 4970 kPa	9.688 ± 0.4 mPa·s and 9.672 ± 0.39 mPa·s
333.21 K, 4980 kPa	9.595 ± 0.39 mPa·s and 9.684 ± 0.4 mPa·s
333.21 K, 4990 kPa	9.704 ± 0.4 mPa·s
333.21 K, 5030 kPa	9.613 ± 0.39 mPa·s
333.21 K, 9610 kPa	10.02 ± 0.41 mPa·s
333.21 K, 9620 kPa	9.96 ± 0.41 mPa·s and 9.899 ± 0.4 mPa·s
333.21 K, 9680 kPa	9.927 ± 0.4 mPa·s
333.21 K, 9690 kPa	9.942 ± 0.4 mPa·s and 9.978 ± 0.41 mPa·s
333.21 K, 9700 kPa	9.918 ± 0.4 mPa·s
333.21 K, 9720 kPa	9.986 ± 0.41 mPa·s
333.21 K, 20900 kPa	10.78 ± 0.44 mPa·s
333.21 K, 20930 kPa	10.79 ± 0.44 mPa·s
333.21 K, 20940 kPa	10.78 ± 0.44 mPa·s and 10.79 ± 0.44 mPa·s
333.21 K, 29220 kPa	11.36 ± 0.65 mPa·s
333.21 K, 29260 kPa	11.37 ± 0.66 mPa·s
333.21 K, 29290 kPa	11.28 ± 0.68 mPa·s
333.21 K, 29370 kPa	11.48 ± 0.68 mPa·s
333.21 K, 29400 kPa	11.32 ± 0.62 mPa·s
333.21 K, 29410 kPa	11.32 ± 0.62 mPa·s
333.21 K, 29450 kPa	11.36 ± 0.63 mPa·s
333.21 K, 29460 kPa	11.34 ± 0.64 mPa·s
333.21 K, 29490 kPa	11.36 ± 0.64 mPa·s
333.21 K, 29520 kPa	11.49 ± 0.64 mPa·s
333.21 K, 29730 kPa	11.35 ± 0.75 mPa·s
333.21 K, 29740 kPa	11.35 ± 0.75 mPa·s
333.21 K, 29760 kPa	11.47 ± 0.75 mPa·s
333.21 K, 29770 kPa	11.42 ± 0.75 mPa·s
333.21 K, 37210 kPa	11.94 ± 0.49 mPa·s
333.21 K, 37260 kPa	12.04 ± 0.49 mPa·s
333.21 K, 37430 kPa	11.99 ± 0.49 mPa·s
333.21 K, 37490 kPa	12.07 ± 0.49 mPa·s
333.21 K, 38020 kPa	12.13 ± 0.49 mPa·s
333.21 K, 38150 kPa	12.06 ± 0.49 mPa·s
333.21 K, 38270 kPa	12.05 ± 0.49 mPa·s
333.21 K, 47910 kPa	12.77 ± 0.56 mPa·s
333.21 K, 48010 kPa	12.75 ± 0.56 mPa·s
333.21 K, 48280 kPa	12.76 ± 0.56 mPa·s
333.21 K, 49590 kPa	12.91 ± 0.57 mPa·s
333.21 K, 49640 kPa	13.01 ± 0.57 mPa·s
333.21 K, 49670 kPa	12.99 ± 0.57 mPa·s
333.21 K, 49700 kPa	12.96 ± 0.57 mPa·s
333.21 K, 49730 kPa	12.91 ± 0.56 mPa·s
333.21 K, 68790 kPa	14.61 ± 0.66 mPa·s
333.21 K, 69130 kPa	14.52 ± 0.63 mPa·s
333.21 K, 69650 kPa	14.74 ± 0.63 mPa·s
343.08 K, 200 kPa	6.978 ± 0.29 mPa·s and 6.969 ± 0.29 mPa·s and 6.931 ± 0.29 mPa·s
343.08 K, 1160 kPa	6.971 ± 0.28 mPa·s [middle of 4 runs]
343.08 K, 4890 kPa	7.185 ± 0.29 mPa·s
343.08 K, 4900 kPa	7.179 ± 0.29 mPa·s and 7.239 ± 0.29 mPa·s and 7.214 ± 0.29 mPa·s
343.08 K, 9750 kPa	7.392 ± 0.3 mPa·s
343.08 K, 9760 kPa	7.403 ± 0.3 mPa·s
343.08 K, 9770 kPa	7.403 ± 0.3 mPa·s
343.08 K, 20580 kPa	8.071 ± 0.33 mPa·s and 7.965 ± 0.32 mPa·s
343.08 K, 20590 kPa	8.036 ± 0.33 mPa·s and 7.937 ± 0.32 mPa·s
343.08 K, 20600 kPa	8.08 ± 0.33 mPa·s
343.08 K, 30330 kPa	8.459 ± 0.34 mPa·s
343.08 K, 30350 kPa	8.469 ± 0.34 mPa·s and 8.515 ± 0.35 mPa·s and 8.474 ± 0.34 mPa·s
343.08 K, 30390 kPa	8.519 ± 0.35 mPa·s
343.08 K, 39560 kPa	8.994 ± 0.36 mPa·s
343.08 K, 39590 kPa	9.055 ± 0.37 mPa·s
343.08 K, 39640 kPa	9.065 ± 0.37 mPa·s
343.08 K, 50360 kPa	9.671 ± 0.47 mPa·s
343.08 K, 50420 kPa	9.687 ± 0.39 mPa·s
343.08 K, 50470 kPa	9.572 ± 0.39 mPa·s
343.08 K, 50570 kPa	9.608 ± 0.47 mPa·s
343.08 K, 67230 kPa	10.62 ± 0.48 mPa·s
